Tested on: luciferase gene expression in HEK 293 cells in response to Comp. 004
Test: Screen of riboswitch constructs with 12C6-1 variant aptamers (libraries N1-N5) against Comp. 004, luciferase in HEK 293 cells
Type: cell-based, human
Source text: Cloning of riboswitch constructs containing 12C6-1 variant aptamer sequences: 12C6-1 aptamer sequence was used as template, and nucleobases were randomized at certain position in the sequence. Aptamers incorporating random mutagenesis were synthesized by Integrated DNA Technologies, Inc. Golden Gate cloning strategy (New England Biolabs, NEB) was used to clone the synthesized aptamer sequences into intron-exon-intron cassette to replace the 12C6-1 aptamer in the Luci-12C6-1 riboswitch construct, generating riboswitch constructs containing variant aptamer sequences.
To further improve the riboswitch activity in responding to Comp. 004 and related compounds, the aptamer sequence 12C6-1 was subject to mutagenesis to generate aptamer variants, and the riboswitches containing the variant aptamers were screened against Comp. 004 for the ones that have improved dynamic range of induced gene expression (the fold induction), in comparison with the fold induction by parental riboswitch construct Luci-12C6-1. […] These loop or junction region alone or together with stem region in proximity were chosen for random mutagenesis to generate riboswitches with re-engineered aptamer sequences with improved activity.
Five aptamer libraries N1, N2, N3, N4 and N5 were generated by randomizing nucleotides at positions in J2-4, J2-3/J3-3a/J3a-2/P3, L3a, J4-5/J5-4/P4 and L5 regions of the parent 12C6-1 sequence, respectively (see FIGS. 3a and 3b). Single bacterial colonies were picked and plasmids containing variant riboswitch constructs were screened in HEK 293 cells for improved gene regulation activity in response to 25 µM Comp. 004 as compared to parent riboswitch construct Luci-12C6-1.

[1] = library N2 variant aptamers (J2-3, P3-J3-3a, J3a-2 randomized) of 12C6-1 in riboswitch constructs, in response to Comp. 004, HEK 293 cells
[2] = library N1 (J2-4), HEK 293, 25 M [sic] Comp. 004
[3] = library N5 variant aptamers (L5, X16-X21 randomized) of 12C6-1 in riboswitch constructs, in response to Comp. 004 treatment, HEK 293 cells

Substance | Fold (induction of luciferase gene expression) [3] | also measured
N2_2D4 (DNA CTGGGGAGTCCTTCATGC; chemistry not given here) | – | Fold (induction of luciferase gene expression) [1]: 0.8 fold
N1_2F12 (CTGGGGAGTCCTTCATGCGGGGC; chemistry not given here) | – | Fold (induction of luciferase gene expression) [2]: 1.83 fold
N5_7E11 (DNA CTGGGGAGTCCT; chemistry not given here) | 732.1 fold | –
N1_2E7 (CTGGGGAGTCCTTCATGCGGGGC; chemistry not given here) | – | Fold (induction of luciferase gene expression) [2]: 19.91 fold
N2_2C4 (CTGGGGAGTCCTTCATGC; chemistry not given here) | – | Fold (induction of luciferase gene expression) [1]: 2.0 fold
N5_9H1 (DNA CTGGGGAGTCCT; chemistry not given here) | 1494.7 fold | –
N5_3C10 (CTGGGGAGTCCT; chemistry not given here) | 751.6 fold | –
N5_1A11 (CTGGGGAGTCCT; chemistry not given here) | 793.5 fold | –
N2_2C8 (CTGGGGAGTCCTTCATGC; chemistry not given here) | – | Fold (induction of luciferase gene expression) [1]: 0.9 fold
N5_12G6 (CTGGGGAGTCCT; chemistry not given here) | 2750.8 fold | –
N2_2E2 (DNA CTGGGGAGTCCTTCATGC; chemistry not given here) | – | Fold (induction of luciferase gene expression) [1]: 1.1 fold
N5_7F9 (DNA CTGGGGAGTCCT; chemistry not given here) | 642.4 fold | –
N5_1H9 (CTGGGGAGTCCT; chemistry not given here) | 714.2 fold | –
N5_2B11 (CTGGGGAGTCCT; chemistry not given here) | 1009.4 fold | –
N2_2G2 (DNA CTGGGGAGTCCTTCATGC; chemistry not given here) | – | Fold (induction of luciferase gene expression) [1]: 1.3 fold
N5_1E4 (CTGGGGAGTCCT; chemistry not given here) | 834.9 fold | –
N5_8G9 (DNA CTGGGGAGTCCT; chemistry not given here) | 1066.5 fold | –
N5_7F10 (DNA CTGGGGAGTCCT; chemistry not given here) | 572.7 fold | –
N1_2D5 (CTGGGGAGTCCTTCATGCGGGGC; chemistry not given here) | – | Fold (induction of luciferase gene expression) [2]: 35.71 fold
N5_9C2 (DNA CTGGGGAGTCCT; chemistry not given here) | 1027.6 fold | –
N5_1G2 (CTGGGGAGTCCT; chemistry not given here) | 517.7 fold | –
N5_2E11 (CTGGGGAGTCCT; chemistry not given here) | 1038.1 fold | –
N2_2B6 (CTGGGGAGTCCTTCATGC; chemistry not given here) | – | Fold (induction of luciferase gene expression) [1]: 0.8 fold
N5_7G12 (DNA CTGGGGAGTCCT; chemistry not given here) | 894.6 fold | –

Substance | Fold (induction of luciferase gene expression) [3] | also measured
N5_3G12 (CTGGGGAGTCCT; chemistry not given here) | 756.5 fold | –
N5_1D1 (CTGGGGAGTCCT; chemistry not given here) | 321.6 fold | –
N2_2F10 (DNA CTGGGGAGTCCTTCATGC; chemistry not given here) | – | Fold (induction of luciferase gene expression) [1]: 1.1 fold
N2_2G5 (DNA CTGGGGAGTCCTTCATGC; chemistry not given here) | – | Fold (induction of luciferase gene expression) [1]: 1.0 fold
N5_1C11 (CTGGGGAGTCCT; chemistry not given here) | 484.2 fold | –
N1_2E5 (CTGGGGAGTCCTTCATGCGGGGC; chemistry not given here) | – | Fold (induction of luciferase gene expression) [2]: 35.05 fold
N1_2H11 (CTGGGGAGTCCTTCATGCGGGGC; chemistry not given here) | – | Fold (induction of luciferase gene expression) [2]: 2.83 fold
N5_5D9 (CTGGGGAGTCCT; chemistry not given here) | 712.5 fold | –
N2_2H9 (CTGGGGAGTCCTTCATGC; chemistry not given here) | – | Fold (induction of luciferase gene expression) [1]: 0.9 fold
N5_13G10 (CTGGGGAGTCCT; chemistry not given here) | 1604.0 fold | –
N2_2A3 (CTGGGGAGTCCTTCATGC; chemistry not given here) | – | Fold (induction of luciferase gene expression) [1]: 0.8 fold
N5_12F4 (CTGGGGAGTCCT; chemistry not given here) | 2096.2 fold | –
N5_8C7 (DNA CTGGGGAGTCCT; chemistry not given here) | 817.6 fold | –
N5_7B1 (CTGGGGAGTCCT; chemistry not given here) | 2062.3 fold | –
N5_3C8 (CTGGGGAGTCCT; chemistry not given here) | 835.1 fold | –
N5_11G11 (CTGGGGAGTCCT; chemistry not given here) | 1186.4 fold | –
N2_2G1 (DNA CTGGGGAGTCCTTCATGC; chemistry not given here) | – | Fold (induction of luciferase gene expression) [1]: 1.7 fold
N2_2G4 (DNA CTGGGGAGTCCTTCATGC; chemistry not given here) | – | Fold (induction of luciferase gene expression) [1]: 1.1 fold
N5_7G1 (DNA CTGGGGAGTCCT; chemistry not given here) | 935.4 fold | –
N1_2D10 (CTGGGGAGTCCTTCATGCGGGGC; chemistry not given here) | – | Fold (induction of luciferase gene expression) [2]: 15.53 fold
N5_7B3 (CTGGGGAGTCCT; chemistry not given here) | 756.3 fold | –
N2_2B9 (CTGGGGAGTCCTTCATGC; chemistry not given here) | – | Fold (induction of luciferase gene expression) [1]: 1.1 fold
N1_2H8 (CTGGGGAGTCCTTCATGCGGGGC; chemistry not given here) | – | Fold (induction of luciferase gene expression) [2]: 1.45 fold
N2_2E4 (DNA CTGGGGAGTCCTTCATGC; chemistry not given here) | – | Fold (induction of luciferase gene expression) [1]: 0.7 fold

Substance | Fold (induction of luciferase gene expression) [3] | also measured
N2_2B8 (CTGGGGAGTCCTTCATGC; chemistry not given here) | – | Fold (induction of luciferase gene expression) [1]: 1.1 fold
N5_6F5 (CTGGGGAGTCCT; chemistry not given here) | 1665.4 fold | –
N5_1D5 (CTGGGGAGTCCT; chemistry not given here) | 841.7 fold | –
N2_2B12 (CTGGGGAGTCCTTCATGC; chemistry not given here) | – | Fold (induction of luciferase gene expression) [1]: 1.0 fold
N5_2C5 (CTGGGGAGTCCT; chemistry not given here) | 1055.1 fold | –
N5_13G12 (CTGGGGAGTCCT; chemistry not given here) | 1199.4 fold | –
N5_7B12 (CTGGGGAGTCCT; chemistry not given here) | 908.4 fold | –
N5_1C2 (CTGGGGAGTCCT; chemistry not given here) | 687.2 fold | –
N5_1B5 (CTGGGGAGTCCT; chemistry not given here) | 780.8 fold | –
N5_1A10 (CTGGGGAGTCCT; chemistry not given here) | 674.4 fold | –
N5_6G10 (CTGGGGAGTCCT; chemistry not given here) | 1262.0 fold | –
N5_1G9 (CTGGGGAGTCCT; chemistry not given here) | 1230.3 fold | –
N5_2D9 (CTGGGGAGTCCT; chemistry not given here) | 735.9 fold | –
N5_1B3 (CTGGGGAGTCCT; chemistry not given here) | 792.0 fold | –
N5_1D11 (CTGGGGAGTCCT; chemistry not given here) | 4.8 fold | –
N5_7B10 (CTGGGGAGTCCT; chemistry not given here) | 1361.5 fold | –
N5_7H12 (DNA CTGGGGAGTCCT; chemistry not given here) | 1194.5 fold | –
N5_1B10 (CTGGGGAGTCCT; chemistry not given here) | 1013.6 fold | –
N5_7H4 (DNA CTGGGGAGTCCT; chemistry not given here) | 560.0 fold | –
N5_1A7 (CTGGGGAGTCCT; chemistry not given here) | 659.9 fold | –
N5_1F2 (CTGGGGAGTCCT; chemistry not given here) | 415.1 fold | –
N1_2H5 (CTGGGGAGTCCTTCATGCGGGGC; chemistry not given here) | – | Fold (induction of luciferase gene expression) [2]: 1.62 fold
N5_7E12 (DNA CTGGGGAGTCCT; chemistry not given here) | 933.3 fold | –

— patent US20250101436A1, “APTAMERS AND SMALL MOLECULE LIGANDS” (MeiraGTx UK II Limited, priority 2021, published 2025)
